Tests used:
[1] = target: T1, Purified recombinant ADAMTS-7 (rat prodomain/human catalytic domain, SEQ ID No. 01 or 02) (Homo sapiens, UniProt Q9UKP4); assay: Assay for ADAMTS-7 enzymatic activity (FRET substrate cleavage); format: biochemical; settings: FRET substrate SEQ ID No. 11, 120 min at 32° C.; read-out: ADAMTS7-IC50
T1 construct: rat ADAMTS-7 signal peptide + prodomain (rat 1-217, Q1EHB3) (N); 2xStrep tag (C); 6xHis tag (C); made in house; host or cells: Expi293 cells
T1 sequence (Q9UKP4 237-537): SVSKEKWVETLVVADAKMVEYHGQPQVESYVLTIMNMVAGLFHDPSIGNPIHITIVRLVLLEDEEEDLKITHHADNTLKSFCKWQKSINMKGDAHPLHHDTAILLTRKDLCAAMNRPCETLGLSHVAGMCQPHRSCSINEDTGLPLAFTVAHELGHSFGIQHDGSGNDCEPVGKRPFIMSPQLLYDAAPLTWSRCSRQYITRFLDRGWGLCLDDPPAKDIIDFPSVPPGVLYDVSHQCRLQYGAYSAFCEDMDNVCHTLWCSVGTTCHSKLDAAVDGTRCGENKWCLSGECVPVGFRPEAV
Experimental: Purified recombinant ADAMTS-7 (as of SEQ ID No. 01 or SEQ ID No. 02) was diluted in reaction buffer (20 mM HEPES pH 8.0, 150 mM NaCl, 5 mM CaCl2, 0.004% Brij, 10 μM ZnCl2) fora concentration of approximately 20 nM. 25 μl of the solution were transferred into each well of a 384-well white microtiter plate (Greiner Bio-One 781075) and 1 μl test compound solution (modulator/inhibitor dissolved in DMSO, at the corresponding concentration) or pure DMSO as a control were added per well. […] Amino acids […] are derived from Thrombospondin-1 sequence (275-289). An additional carboxyl glutamic acid was added after the QXL520 quencher to increase substrate solubility. The microtiter plate was incubated for 120 min at the temperature of 32° C. The increase of fluorescence intensity was measured in appropriate fluorescence plate reader (e.g. TECAN Ultra) using excitation wavelength of 485 nm and emission wavelength of 520 nm. IC50 values were calculated from percentage of inhibition of ADAMTS-7 activity as a function of test compound concentration.

[2] = target: T2, ADAMTS4 (Homo sapiens, UniProt O75173); assay: Selectivity assay for ADAMTS-7 modulators (FRET), ADAMTS4; format: biochemical; settings: 50 nM enzyme (R&D 4307-AD), 1 μM Dabcyl/Edans FRET substrate, 120 min at 32° C.
T2 construct: purchased R&D 4307-AD
T2 sequence (O75173 213-685 limits assumed): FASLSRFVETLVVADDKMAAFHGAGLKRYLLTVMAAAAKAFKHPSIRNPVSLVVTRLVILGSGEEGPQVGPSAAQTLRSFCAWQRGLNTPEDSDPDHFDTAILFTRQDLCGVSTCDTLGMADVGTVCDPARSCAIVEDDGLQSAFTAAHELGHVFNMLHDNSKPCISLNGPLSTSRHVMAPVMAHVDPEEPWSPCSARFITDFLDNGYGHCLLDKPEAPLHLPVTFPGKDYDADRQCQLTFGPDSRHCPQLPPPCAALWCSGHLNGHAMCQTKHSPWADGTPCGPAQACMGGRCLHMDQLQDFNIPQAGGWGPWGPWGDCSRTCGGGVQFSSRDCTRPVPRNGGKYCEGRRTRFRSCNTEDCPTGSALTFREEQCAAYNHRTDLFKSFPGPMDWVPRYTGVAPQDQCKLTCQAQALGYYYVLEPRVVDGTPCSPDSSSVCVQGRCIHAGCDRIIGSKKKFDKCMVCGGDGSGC
Experimental: The respective enzyme (see table 2 below) was diluted in reaction buffer (50 mM Tris, 2.5 μM ZnCl2, 0.05% BSA, 0.001% Brij, pH 7.5 for ADAM17; 50 mM Tris 7.5, 150 mM NaCl, 10 mM CaCl2, 0.05% Brij for all other enzymes) to the respective concentration and 25 μl were transferred into each well of a 384-well white microtiter plate (Greiner Bio One 781075). 1 μl test compound solution (dissolved in DMSO, at the corresponding concentration) or pure DMSO as a control was added per well. The enzymatic reaction was initiated by addition of 25 μl of the respective concentration of the respective FRET substrate (see table 2 below) in reaction buffer. The microtiter plate was incubated for 120 min at the temperature of 32° C. The increase of fluorescence intensity was measured in appropriate fluorescence plate reader (e.g. TECAN Ultra) using the respective wavelengths for excitation and emission. IC50 values were calculated from percentage of inhibition of enzyme activity as a function of test compound concentration.

Row | IC50 [1] [nM] | IC50 [2] [nM] | Compound
1 | 37 | 1000 | CCC(C)C1(CNC(=O)c2cnn(-c3ccc(F)cc3)n2)NC(=O)NC1=O (single isomer, unassigned) [Example 137, ent-N-[(4-sec-butyl-2,5-dioxoimidazolidin-4-yl)methyl]-2-(4-fluorophenyl)-2H-1,2,3-triazole-4-carboxamide]
2 | 19 | 1100 | O=C1NC(=O)C(CNC(=O)c2cnn(-c3ccc(Cl)c(F)c3)n2)(c2nccs2)N1 (racemic) [Example 109, rac-2-(4-chloro-3-fluorophenyl)-N-{[2,5-dioxo-4-(1,3-thiazol-2-yl)imidazolidin-4-yl]methyl}-2H-1,2,3-triazole-4-carboxamide]
3 | 10 | 2200 | CCC(C)C1(CNC(=O)c2cnn(-c3ccc(F)cc3)n2)NC(=O)NC1=O (single isomer, unassigned) [Example 104, ent-N-[(4-sec-butyl-2,5-dioxoimidazolidin-4-yl)methyl]-2-(4-fluorophenyl)-2H-1,2,3-triazole-4-carboxamide]
4 | 14 | 2800 | CCn1nccc1C1(CNC(=O)c2cnn(-c3ccc(F)cc3)n2)NC(=O)NC1=O (racemic) [Example 130, rac-N-{[4-(1-ethyl-1H-pyrazol-5-yl)-2,5-dioxoimidazolidin-4-yl]methyl}-2-(4-fluorophenyl)-2H-1,2,3-triazole-4-carboxamide]
5 | 2 | 130 | Cn1ccnc1C1(CNC(=O)c2cnn(-c3ccc(F)cc3)n2)NC(=O)NC1=O (single isomer, unassigned; ent-2) [Example 144, ent-2-(4-fluorophenyl)-N-{[4-(1-methyl-1H-imidazol-2-yl)-2,5-dioxoimidazolidin-4-yl]methyl}-2H-1,2,3-triazole-4-carboxamide]
6 | 4 | 360 | Cn1ccnc1C1(CNC(=O)c2cnn(-c3ccccc3)n2)NC(=O)NC1=O (racemic) [Example 140, rac-N-{[4-(1-methyl-1H-imidazol-2-yl)-2,5-dioxoimidazolidin-4-yl]methyl}-2-phenyl-2H-1,2,3-triazole-4-carboxamide]
7 | 48 | 3100 | CCCCC1(CNC(=O)c2cnn(-c3ccc(F)cc3)n2)NC(=O)NC1=O (centres unmarked) [Example 82]
8 | 8 | 2200 | O=C1NC(=O)C(CNC(=O)c2cnn(-c3cccc(F)c3)n2)(C2CCC2)N1 (stereo not drawn) [Example 93, ent-N-[(4-cyclobutyl-2,5-dioxoimidazolidin-4-yl)methyl]-2-(3-fluorophenyl)-2H-1,2,3-triazole-4-carboxamide]
9 | 100 | 6000 | COc1ccc(-n2ncc(C(=O)NC[C@@]3(C4CC4)NC(=O)NC3=O)n2)cc1 [Example 27, N-{[(4R)-4-cyclopropyl-2,5-dioxoimidazolidin-4-yl]methyl}-2-(4-methoxyphenyl)-2H-1,2,3-triazole-4-carboxamide]
10 | 10 | 3000 | O=C1NC(=O)C(CNC(=O)c2cnn(-c3ccc(F)cc3)n2)(c2ccccn2)N1 (racemic) [Example 22, rac-N-{[2,5-dioxo-4-(pyridin-2-yl)imidazolidin-4-yl]methyl}-2-(4-fluorophenyl)-2H-1,2,3-triazole-4-carboxamide]
11 | 18 | 1800 | O=C1NC(=O)C(CNC(=O)c2cnn(-c3ccc(F)c(Cl)c3)n2)(C2CCC2)N1 (single isomer, unassigned; ent-2) [Example 91, ent-2-(3-chloro-4-fluorophenyl)-N-[(4-cyclobutyl-2,5-dioxoimidazolidin-4-yl)methyl]-2H-1,2,3-triazole-4-carboxamide]
12 | 41 | 4250 | O=C1NC(=O)[C@](CNC(=O)c2cnn(-c3ccc(F)cc3F)n2)(C2CC2)N1 [Example 31, N-{[(4R)-4-cyclopropyl-2,5-dioxoimidazolidin-4-yl]methyl}-2-(2,4-difluorophenyl)-2H-1,2,3-triazole-4-carboxamide]
13 | 191 | 19000 | CCCCC1(CNC(=O)c2cnn(-c3ccccc3)n2)NC(=O)NC1=O (stereo not drawn) [Example 78, ent-N-[(4-butyl-2,5-dioxoimidazolidin-4-yl)methyl]-2-phenyl-2H-1,2,3-triazole-4-carboxamide]
14 | 140 | 2900 | O=C1NC(=O)C(CNC(=O)c2cnn(-c3ccc(F)cc3)n2)(c2ccncc2)N1 (racemic) [Example 24, rac-N-{[2,5-dioxo-4-(pyridin-4-yl)imidazolidin-4-yl]methyl}-2-(4-fluorophenyl)-2H-1,2,3-triazole-4-carboxamide]
15 | 79 | 2200 | CC(C)(C)C1(CNC(=O)c2cnn(-c3ccc(F)cc3)n2)NC(=O)NC1=O (stereo not drawn) [Example 3, ent-N-{[4-tert-butyl-2,5-dioxoimidazolidin-4-yl]methyl}-2-(4-fluorophenyl)-2H-1,2,3-triazole-4-carboxamide]
16 | 10 | 1900 | O=C1NC(=O)C(CNC(=O)c2cnn(-c3ccc(F)cc3)n2)(c2ccccn2)N1 (single isomer, unassigned) [Example 97, ent-N-{[2,5-dioxo-4-(pyridin-2-yl)imidazolidin-4-yl]methyl}-2-(4-fluorophenyl)-2H-1,2,3-triazole-4-carboxamide]
17 | 240 | 19000 | CCCC1(CNC(=O)c2cnn(-c3ccccc3)n2)NC(=O)NC1=O (racemic) [Example 55, rac-N-[(2,5-dioxo-4-propylimidazolidin-4-yl)methyl]-2-phenyl-2H-1,2,3-triazole-4-carboxamide]
18 | 48 | 2200 | O=C1NC(=O)C(CNC(=O)c2cnn(-c3cccc(Cl)c3)n2)(C2CCC2)N1 (single isomer, unassigned; ent-2) [Example 96, ent-2-(3-chlorophenyl)-N-[(4-cyclobutyl-2,5-dioxoimidazolidin-4-yl)methyl]-2H-1,2,3-triazole-4-carboxamide]
19 | 78 | 4000 | N#Cc1cccc(-n2ncc(C(=O)NCC3(C4CCC4)NC(=O)NC3=O)n2)c1 (single isomer, unassigned; ent-2) [Example 92, ent-2-(3-cyanophenyl)-N-[(4-cyclobutyl-2,5-dioxoimidazolidin-4-yl)methyl]-2H-1,2,3-triazole-4-carboxamide]
20 | 60 | 1000 | O=C1NC(=O)[C@](CNC(=O)c2cnn(-c3ccc(Cl)cc3F)n2)(C2CC2)N1 [Example 160, 2-(4-chloro-2-fluorophenyl)-N-{[(4R)-4-cyclopropyl-2,5-dioxoimidazolidin-4-yl]methyl}-2H-1,2,3-triazole-4-carboxamide]
21 | 20 | 3300 | CC(C)C1(CNC(=O)c2cnn(-c3cc(F)c(F)c(F)c3)n2)NC(=O)NC1=O (stereo not drawn) [Example 117, ent-N-[(4-isopropyl-2,5-dioxoimidazolidin-4-yl)methyl]-2-(3,4,5-trifluorophenyl)-2H-1,2,3-triazole-4-carboxamide]

Row | Compound | IC50 [1] [nM] | IC50 [2] [nM]
22 | ent-N-({4-[1-(difluoromethyl)-1H-pyrazol-5-yl]-2,5-dioxoimidazolidin-4-yl}methyl)-2-(4-fluorophenyl)-2H-1,2,3-triazole-4-carboxamide [Example 129] | 18 | 1700
